Like-named read-outs stand apart in the source and are kept apart here.
How the values were obtained:
[1] = system: mammary adenocarcinoma-16/C; assay: Test F: R-enantiomers of 22b and 22c against early staged mammary adenocarcinoma-16/C; assay type: in vivo, C3H female mice
Protocol: C3H female mice were obtained from N.C.I. (D.O.B. was […]; D.O.A. was Jan. 27, 2001). The mice weighed an average of 19.2 gm. Mice were implanted SC with mammary adenocarcinoma-16/C passage-170, a fast growing, highly invasive, highly metastatic tumor (D.O.T. was Mar. 8, 2001; Td was 1.2 days).
The R-enantiomers of both Compound 22c and Compound 22b were each suspended in 3% ethanol, 1% POE-80, 0.5% sodium bicarbonate (by volume) to effect solution, P.B.S. was then added and the pH adjusted to 7 with HCl. Adriamycin (ADRIA; lot number 20338c) was suspended in dH2O to effect solution and the pH was adjusted to 6.0. Mice were administered 0.2 ml per IV injection.

[2] = system: pancreatic ductal adenocarcinoma-03; assay type: in vivo
Protocol: BDF1 female mice were obtained from N.C.I., CRL-Ral (D.O.B. was Feb. 26, 2001; D.O.A. was Mar. 10, 2001). The mice weighed an average of 22.5 gm. Mice were implanted SC with pancreatic ductal adenocarcinoma-03 passage 143. (D.O.T. was May 29, 2001; Td was 2.3 days).
The R-enantiomer of compound 22c was suspended in 3% ethanol, 1% POE-80, 0.25% sodium bicarbonate (by volume) to effect solution. dH2O was then added, and the pH adjusted to 7 with HCl. […] The R-enantiomer of compound 22b was suspended in 3% ethanol, 1% POE-80, 0.5% sodium-bicarbonate (by volume) to effect solution. Then, dH2O was added, and the pH adjusted to 7.5 with HCl. […] Adriamycin (source ADRIA; lot 2033BC) was suspended in dH2O to effect solution, and the pH was 6.0.
Treatment began six days following implant, at which time the tumors were palpable size (126 mg median). The duration of treatment was prolonged (18 days) in order to obtain a clear separation in efficacy between the compounds.

colon carcinoma 26 = system: colon carcinoma 26
Protocol: In this trial the R-enantiomers of XK-469, compound 22c, and compound 22b were compared against advanced staged colon carcinoma 26 in female Balb/c mice. […] Cage #2 was 22b at 400 mg/kg and Cage #4 was 22c at 400 mg/kg.
The XK469-R, 22b, and 22c compound doses were all prepared the same, using 3% ethanol, 1% POE-80, and 0.5% sodium bicarbonate. The injection volume was 0.2 mu/mouse IV. […] The mice were Balb/c female mice: DOB Feb. 12, 2001; DOA Mar. 27, 2001; DOT Sep. 8, 2001, with an average body weight of 24.7 grams at the start of Rx administration. The tumor was Colon Carcinoma-26 passage 141; date of implant Sep. 8, 2001, and implanted at 30 to 60 mg fragments bilaterally SC. All tumors were 63 to 171 mg on day 6, the day of first Rx.

[3] = Cage 2, IV 65 mg/kg/inj qd 1-4, total 260 mg/kg
[4] = Cage 3, IV 65 mg/kg/inj days 1,3,5,7, total 260 mg/kg
[5] = Cage 3, IV 65 mg/kg/inj days 1,3,5,7, total 260 mg/kg, listed as R-enantiomer of compound 22c
[6] = Cage 4, IV 40 mg/kg/inj days 1,3,5,7, total 160 mg/kg
[7] = Cage 4, IV 40 mg/kg/inj days 1,3,5,7, total 160 mg/kg, listed as R-enantiomer of compound 22c
[8] = Cg 13 in table (Cage 12 in text), IV 80 mg/kg/inj days 6,9,12,15,18,21, total 480 mg/kg
[9] = Cg 8, IV 110 mg/kg/inj days 6,10, total 220 mg/kg
[10] = Cg 6, IV 80 mg/kg/inj days 6,8,10,14,16, total 400 mg/kg
[11] = Cg 7, IV 50 mg/kg/inj days 6,8,10,13,15, total 250 mg/kg

C[C@@H](Oc1ccc(Oc2ccc3ccc(Br)cc3n2)cc1)C(=O)O [Compound R-22c]
% Body Wt Loss at Nadir [1, 3]: −22.9% | % T/C mass [1, 3]: toxic | Activity Rating [1, 3]: toxic | Cause of death [1, 3]: G.I. epithelial damage | Day of Nadir [1, 3]: 6 days | Drug Deaths [1, 3]: 5/5 | Growth Delay in Days [1, 3]: toxic | Log Kill [1, 3]: toxic | Median Tumor Mass on Day 10 (Range) [1, 3]: toxic | Median time for tumors to 1000 mg (range) [1, 3]: toxic | Neuromuscular toxicity [1, 3]: No neuromuscular toxicity | Tumor Free day-155 [1, 3]: 0/5 | Drug Deaths ([1]; Cage 2, IV 65 mg/kg/inj qd 1-4, total 260 mg/kg, listed as R-enantiomer of compound 22c): All the mice died | % Body Wt Loss at Nadir [1, 4]: −8.3% | % T/C mass [1, 4]: 4% | Activity Rating [1, 4]: ++ (1.3-1.9) | Day of Nadir [1, 4]: 9 days | Day of full recovery of body weight [1, 4]: 12 days | Drug Deaths [1, 4]: 0/5 | Growth Delay [1, 4]: 5.8 days | Log Kill [1, 4]: 1.7 | Median Tumor Mass on Day 10 (Range) [1, 4]: 63 mg | Median time for tumors to 1000 mg (range) [1, 4]: 15.3 (14-21.5) days | Neuromuscular toxicity [1, 4]: no neuromuscular toxicity | Tumor Free day-155 [1, 4]: 0/5 | % Body Wt Loss at Nadir [1, 5]: −8.3% | % T/C mass [1, 5]: 4% | Drug Deaths [1, 5]: no deaths | % Body Wt Loss at Nadir [1, 6]: +6.4% | % T/C mass [1, 6]: 9% | Activity Rating [1, 6]: ++ (1.3-1.9) | Day of Nadir [1, 6]: 8 days | Drug Deaths [1, 6]: 0/5 | Growth Delay [1, 6]: 4.7 days | Log Kill [1, 6]: 1.4 | Median Tumor Mass on Day 10 (Range) [1, 6]: 138 mg | Median time for tumors to 1000 mg (range) [1, 6]: 14.2 (12.5-16.7) days | Tumor Free day-155 [1, 6]: 1/5 | % Body Wt Loss at Nadir [1, 7]: +6.4% | % T/C mass [1, 7]: 9% | Neuromuscular toxicity ([1]; whole trial (Test F), IV): completely devoid of neuromuscular toxicity | Behavior post injection ([2]; Cage 12 in text, IV 80 mg/kg/inj, lasted only a few minutes): agitated post IV injection | Neuromuscular toxicity ([2]; Cage 12 in text, IV 80 mg/kg/inj, total 480 mg/kg): no neuromuscular toxicity | % Body Wt change between day 6 and day 24 [2, 8]: +5.9% | % T/C mass [2, 8]: 2.8% | Activity Rating [2, 8]: ++++ (>2.8) | CR's [2, 8]: 3/4 | Drug Deaths [2, 8]: 0/4 | Growth Delay [2, 8]: 23.5 days | Log Kill [2, 8]: 3.1 | Median Tumor Mass on Day 24 (Range) [2, 8]: 63 mg | Median time for tumors to 1,000 mg (range) [2, 8]: 40 days | PR's [2, 8]: 3/4 | Tumor Free day-157 [2, 8]: 0/4 | Drug Deaths (colon carcinoma 26; Cg 5, IV 50 mg/kg/inj days 6,8,10,13,15, total 250 mg/kg): 0/6 | % Body Wt change at nadir (colon carcinoma 26; mouse, in vivo): −8.1% (17) | Activity Rating (colon carcinoma 26; mouse, in vivo): ++++ (key: ++++: >2.8; +++: 2.0-2.8; ++: 1.3-1.9; +: 0.7-1.2; −: <0.7) | CR's (colon carcinoma 26; mouse, in vivo): 3/6 | Growth Delay in Days (colon carcinoma 26; mouse, in vivo): 3/6 | Log Kill (colon carcinoma 26; mouse, in vivo): >3.5 | Median time for tumors to 700 mg (range) (colon carcinoma 26; mouse, in vivo): 3/6 tumor free | PR's (colon carcinoma 26; mouse, in vivo): 3/6 | Tumor Free day-156 (colon carcinoma 26; mouse, in vivo): 3/6 | day of nadir (colon carcinoma 26; mouse, in vivo): −8.1% (17) day

O=P1(N(CCCl)CCCl)NCCCO1 (stereo not shown) [Cytoxan]
% Body Wt change at nadir (colon carcinoma 26; [9]): −9.4% | Activity Rating (colon carcinoma 26; [9]): no meaningful activity | CR's (colon carcinoma 26; [9]): 0/5 | Drug Deaths (colon carcinoma 26; [9]): 0/5 | Growth Delay (colon carcinoma 26; [9]): 1 days | Log Kill (colon carcinoma 26; [9]): 0.2 | Median time for tumors to 700 mg (range) (colon carcinoma 26; [9]): 14 (12-15) days | PR's (colon carcinoma 26; [9]): 0/5 | Tumor Free day-156 (colon carcinoma 26; [9]): 0/5 | day of nadir (colon carcinoma 26; [9]): 12 days

CC(Oc1ccc(Oc2cnc3ccc(Cl)cc3n2)cc1)C(=O)[O-].[Na+] (stereo not shown) [XK469-R]
% Body Wt change at nadir (colon carcinoma 26; [10]): −8.1% | Activity Rating (colon carcinoma 26; [10]): + (0.7-1.2) | CR's (colon carcinoma 26; [10]): 0/6 | Drug Deaths (colon carcinoma 26; [10]): 0/6 | Growth Delay (colon carcinoma 26; [10]): 5 days | Log Kill (colon carcinoma 26; [10]): 0.9 | Median time for tumors to 700 mg (range) (colon carcinoma 26; [10]): 18 (15-20) days | PR's (colon carcinoma 26; [10]): 0/6 | Tumor Free day-156 (colon carcinoma 26; [10]): 0/6 | day of nadir (colon carcinoma 26; [10]): 13 days | % Body Wt change at nadir (colon carcinoma 26; [11]): −4.0% | Activity Rating (colon carcinoma 26; [11]): inactive | CR's (colon carcinoma 26; [11]): 0/6 | Drug Deaths (colon carcinoma 26; [11]): 0/6 | Growth Delay in Days (colon carcinoma 26; [11]): none | Log Kill (colon carcinoma 26; [11]): none | Median time for tumors to 700 mg (range) (colon carcinoma 26; [11]): 13 (11.5-20) days | PR's (colon carcinoma 26; [11]): 0/6 | Tumor Free day-156 (colon carcinoma 26; [11]): 0/6 | day of nadir (colon carcinoma 26; [11]): 13 days
